Patent US11319299B2, “Substituted carboxamides as inhibitors of WDR5 protein-protein binding” (PROPELLON THERAPEUTICS INC., priority 2016, dated 2022)
pIC50, pKd: −log10 of the molar value. Read-outs that look alike come from different tables or passages of the source.

Experiments:
[1] = system: MV4-11 cells; test: Cell proliferation assay (ATPlite); assay type: cell-based; conditions: Homo sapiens, MV4-11, 120 h; MV-411 cells, five days; read-out: In vitro whole cell potency in MV-411 cells, (IC50)
Summary of the method: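 MV4-11 cells at 1,000 cells/well in Alpha-MEM with 10% FBS were dosed over a 10-point range (top 10 μM). Cells were grown 5 days at 37° C, 5% CO2. Viability was read as ATPlite luminescence.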

[2] = target: WDR5 (Homo sapiens (Human), UniProt P61964); test: Surface Plasmon Resonance (SPR) assay, KD and residence time; assay type: binding; conditions: for pKd: read-out: WDR5 binding affinity (KD)
[3] = surface plasmon resonance (SPR)
[4] = surface plasmon resonance (SPR) assay

SMILES	pIC50 [1]	pKd [2, 3]	pKd [2, 4]	residence time ([2]; τ=1/koff, Table 2, read-out: Residence Time (t, min)) [min]
CC(=O)Nc1ccc(-c2cc(NC(=O)c3c[nH]c(=O)cc3C(F)(F)F)c(N3C[C@@H](C)N(C)[C@@H](C)C3)cc2F)cn1 [Example 64, N-[5-(6-acetamidopyridin-3-yl)-4-fluoro-2-[(3R,5S)-3,4,5-trimethylpiperazin-1-yl]phenyl]-6-oxo-4-(trifluoromethyl)-1H-pyridine-3-carboxamide]	6.44		9.70	
CC1CN(c2cc(F)c(-c3cnc(N4C[C@@H](C)O[C@@H](C)C4)nc3)cc2NC(=O)c2cn(C)c(=O)cc2C(F)F)CCN1C (stereo in doubt) [Example 383, 4-(difluoromethyl)-N-[4-fluoro-5-[2-[(2R,6S)-2,6-dimethylmorpholin-4-yl]pyrimidin-5-yl]-2-[(3R)-3,4-dimethylpiperazin-1-yl]phenyl]-1-methyl-6-oxopyridine-3-carboxamide]	6.83		8.92	
COc1cc(N2CC=C(c3cc(NC(=O)c4c[nH]c(=O)cc4C(F)(F)F)c(N4C[C@@H](C)N(C)[C@@H](C)C4)cc3F)CC2)ncn1 [Example 274, N-[4-fluoro-5-[1-(6-methoxypyrimidin-4-yl)-3,6-dihydro-2H-pyridin-4-yl]-2-[(3R,5S)-3,4,5-trimethylpiperazin-1-yl]phenyl]-6-oxo-4-(trifluoromethyl)-1H-pyridine-3-carboxamide]	7.12		8.89	
COCCOc1ccc(-c2cc(NC(=O)c3c[nH]c(=O)cc3C(F)(F)F)c(N3C[C@@H](C)N(C)[C@@H](C)C3)cc2F)cc1 [Example 90, N-[4-fluoro-5-[4-(2-methoxyethoxy)phenyl]-2-[(3R,5S)-3,4,5-trimethylpiperazin-1-yl]phenyl]-6-oxo-4-(trifluoromethyl)-1H-pyridine-3-carboxamide]	6.92		9.36	
C[C@@H]1CN(c2cc(F)c(-c3cnc(N4CCO[C@@H](C)C4)nc3)cc2NC(=O)c2cn(C)c(=O)cc2C(F)(F)F)C[C@H](C)N1C (racemic) [Example 451, N-[4-fluoro-5-[2-[(2R)-2-methylmorpholin-4-yl]pyrimidin-5-yl]-2-[(3S,5R)-3,4,5-trimethylpiperazin-1-yl]phenyl]-1-methyl-6-oxo-4-(trifluoromethyl)pyridine-3-carboxamide]	7.04	8.76		
C[C@@H]1CN(c2cc(F)c(-c3cnc(N4CCOCC4)nc3)cc2NC(=O)c2c[nH]nc2C(F)(F)F)C[C@H](C)N1C [Example 42, N-[4-fluoro-5-(2-morpholin-4-ylpyrimidin-5-yl)-2-[(3R,5S)-3,4,5-trimethylpiperazin-1-yl]phenyl]-3-(trifluoromethyl)-1H-pyrazole-4-carboxamide]	6.37			3.45
C[C@@H]1CN(c2cc(F)c(C3=CCCN(C(=O)OC4(C)CCC4)C3)cc2NC(=O)c2c[nH]c(=O)cc2C(F)(F)F)C[C@H](C)N1C [Example 471, (1-methylcyclobutyl) 5-[2-fluoro-5-[[6-oxo-4-(trifluoromethyl)-1H-pyridine-3-carbonyl]amino]-4-[(3R,5S)-3,4,5-trimethylpiperazin-1-yl]phenyl]-3,6-dihydro-2H-pyridine-1-carboxylate]	7.11	9.31		
CCN(C)C1CCN(c2cc(F)c(-c3cnc(N4C[C@@H](C)O[C@@H](C)C4)nc3)cc2NC(=O)c2c[nH]c(=O)cc2C(F)(F)F)C1 (stereo in doubt) [Example 418, N-[4-fluoro-5-[2-[(2R,6S)-2,6-dimethylmorpholin-4-yl]pyrimidin-5-yl]-2-[(3S)-3-[ethyl(methyl)amino]pyrrolidin-1-yl]phenyl]-6-oxo-4-(trifluoromethyl)-1H-pyridine-3-carboxamide]	7.15	8.98		
C[C@@H]1CN(c2cc(F)c(-c3ccc(N4CCOCC4)c(F)c3)cc2NC(=O)c2cn(C)c(=O)cc2C(F)(F)F)C[C@H](C)N1C [Example 247, N-[4-fluoro-5-(3-fluoro-4-morpholin-4-ylphenyl)-2-[(3R,5S)-3,4,5-trimethylpiperazin-1-yl]phenyl]-1-methyl-6-oxo-4-(trifluoromethyl)pyridine-3-carboxamide]	6.07		8.29	
CC1CN(c2cc(F)c(-c3cnc(N4CCN(C)CC4)nc3)cc2NC(=O)c2cn(C)c(=O)cc2C(F)(F)F)CCN1C (stereo in doubt) [Example 279, N-[4-fluoro-5-[2-(4-methylpiperazin-1-yl)pyrimidin-5-yl]-2-[(3R)-3,4-dimethylpiperazin-1-yl]phenyl]-1-methyl-6-oxo-4-(trifluoromethyl)pyridine-3-carboxamide]	6.93		8.68	
C[C@@H]1CN(c2ncc(-c3cc(NC(=O)c4ccc(F)cc4C(F)(F)F)c(N4CCN(C)[C@@H](C)C4)cc3F)cn2)CCO1 [Example 456, 4-fluoro-N-[4-fluoro-2-[(3S)-3,4-dimethylpiperazin-1-yl]-5-[2-[(2R)-2-methylmorpholin-4-yl]pyrimidin-5-yl]phenyl]-2-(trifluoromethyl)benzamide]	7.05	8.97		
C[C@@H]1CN(c2cc(F)c(-c3cnc(N(C)C)c(F)c3)cc2NC(=O)c2c[nH]c(=O)cc2C(F)(F)F)C[C@H](C)N1C [Example 221, N-[5-[6-(dimethylamino)-5-fluoropyridin-3-yl]-4-fluoro-2-[(3R,5S)-3,4,5-trimethylpiperazin-1-yl]phenyl]-6-oxo-4-(trifluoromethyl)-1H-pyridine-3-carboxamide]	6.92		9.11	
C[C@@H]1CN(c2cc(F)c(-c3ccc4c(c3)OCO4)cc2NC(=O)c2c[nH]c(=O)cc2C(F)(F)F)C[C@H](C)N1C [Example 63, N-[5-(1,3-benzodioxol-5-yl)-4-fluoro-2-[(3R,5S)-3,4,5-trimethylpiperazin-1-yl]phenyl]-6-oxo-4-(trifluoromethyl)-1H-pyridine-3-carboxamide]	6.69		9.16	
C[C@@H]1CN(c2cc(F)c(C3=CCN(C(=O)OC4(C)CCC4)C3)cc2NC(=O)c2c[nH]c(=O)cc2C(F)(F)F)C[C@H](C)N1C [Example 472, (1-methylcyclobutyl) 3-[2-fluoro-5-[[6-oxo-4-(trifluoromethyl)-1H-pyridine-3-carbonyl]amino]-4-[(3R,5S)-3,4,5-trimethylpiperazin-1-yl]phenyl]-2,5-dihydropyrrole-1-carboxylate]	6.98	9.39		

Compounds with a higher pIC50 [1], results first:

pIC50 [1]	pKd [2, 3]	pKd [2, 4]	residence time ([2]; τ=1/koff, Table 2, read-out: Residence Time (t, min)) [min]	SMILES
7.24	9.52			C[C@@H]1CN(c2cc(F)c(C3=CCCN(c4ncc(CO)cn4)C3)cc2NC(=O)c2c[nH]c(=O)cc2C(F)(F)F)C[C@H](C)N1C [Example 413, N-[4-fluoro-5-[1-[5-(hydroxymethyl)pyrimidin-2-yl]-3,6-dihydro-2H-pyridin-5-yl]-2-[(3R,5S)-3,4,5-trimethylpiperazin-1-yl]phenyl]-6-oxo-4-(trifluoromethyl)-1H-pyridine-3-carboxamide]
7.36		9.17		CC1CN(c2cc(F)c(-c3cnc(C#N)nc3)cc2NC(=O)c2c[nH]c(=O)cc2C(F)(F)F)CCN1C (stereo in doubt) [Example 197, N-[5-(2-cyanopyrimidin-5-yl)-4-fluoro-2-[(3R)-3,4-dimethylpiperazin-1-yl]phenyl]-6-oxo-4-(trifluoromethyl)-1H-pyridine-3-carboxamide]
7.72	9.15			CC1CN(c2nccc(-c3cc(NC(=O)c4c[nH]c(=O)cc4C(F)(F)F)c(N4C[C@@H](C)N(C)[C@@H](C)C4)cc3F)n2)CCO1 (stereo in doubt) [Example 594, N-[4-fluoro-5-[2-[(2R)-2-methylmorpholin-4-yl]pyrimidin-4-yl]-2-[(3S,5R)-3,4,5-trimethylpiperazin-1-yl]phenyl]-6-oxo-4-(trifluoromethyl)-1H-pyridine-3-carboxamide]
7.55		9.00		C[C@@H]1CN(c2ncc(-c3cc(NC(=O)c4c[nH]c(=O)cc4C(F)(F)F)c(N4C[C@@H](C)N(C)[C@@H](C)C4)cc3F)cn2)C[C@H](C)O1 [Example 161, N-[4-fluoro-5-[2-[(2R,6S)-2,6-dimethylmorpholin-4-yl]pyrimidin-5-yl]-2-[(3S,5R)-3,4,5-trimethylpiperazin-1-yl]phenyl]-6-oxo-4-(trifluoromethyl)-1H-pyridine-3-carboxamide]
7.66	9.16			C[C@@H]1CN(c2cc(F)c(-c3csc(C(=O)N(C)CC4CC4)n3)cc2NC(=O)c2c[nH]c(=O)cc2C(F)(F)F)C[C@H](C)N1C [Example 532, N-(cyclopropylmethyl)-4-[2-fluoro-5-[[6-oxo-4-(trifluoromethyl)-1H-pyridine-3-carbonyl]amino]-4-[(3R,5S)-3,4,5-trimethylpiperazin-1-yl]phenyl]-N-methyl-1,3-thiazole-2-carboxamide]
7.31	9.53			C[C@@H]1CN(c2ncc(-c3cc(NC(=O)c4ccc(F)cc4C(F)(F)F)c(N4CCN(C)[C@@H](C)C4)cc3F)cn2)C[C@H](C)O1 (racemic) [Example 430, 4-fluoro-N-[4-fluoro-5-[2-[(2R,6S)-2,6-dimethylmorpholin-4-yl]pyrimidin-5-yl]-2-[(3R)-3,4-dimethylpiperazin-1-yl]phenyl]-2-(trifluoromethyl)benzamide]
7.20	9.08			CC1CN(c2cc(F)c(-c3cnc(N4CCOCC4)nc3)cc2NC(=O)c2c[nH]c(=O)cc2C(F)F)CCN1C (stereo in doubt) [Example 410, 4-(difluoromethyl)-N-[4-fluoro-5-(2-morpholin-4-ylpyrimidin-5-yl)-2-[(3R)-3,4-dimethylpiperazin-1-yl]phenyl]-6-oxo-1H-pyridine-3-carboxamide]
7.31	8.66			CC1CN(c2cc(F)c(-c3cnc(N4CCNCC4)nc3)cc2NC(=O)c2cn(C)c(=O)cc2C(F)(F)F)CCN1C (stereo in doubt) [Example 464, N-[4-fluoro-5-(2-piperazin-1-ylpyrimidin-5-yl)-2-[(3R)-3,4-dimethylpiperazin-1-yl]phenyl]-1-methyl-6-oxo-4-(trifluoromethyl)pyridine-3-carboxamide]
